Data as given in patent US20220339094A1, “NOVEL SKIN CARE COMPOSITION” (BEIERSDORF AG, priority 2019, published 2022).

Assays:
C. acnes strain K8 = assay: Minimum inhibitory concentration (MIC) of cosmetic excipients, strain K8; format: cell-based, Cutibacterium acnes; conditions: % w/vol, anaerobic 3 days at 37° C, visual growth scoring
Method: (§1) In microbiology, the MIC is the lowest concentration of a chemical which prevents visible growth of bacterium. The resulted MIC value depends both on the microorganism and the test compound. The MIC is determined by preparing concentrations series of the test compound in vitro, incubating the solutions with the separate batches of cultured bacteria, and measuring the results using agar dilution or broth microdilution. For the experiments with C. acnes strains C3 and K8, media comprising yeast extract soy peptone and dextrose were used. The MIC is determined by turbidity.
(§2) A total of 125 cosmetic excipients were tested for their compatibility with C. acnes strains C3 and K8. Hydrophilic compounds were tested in a 96-well plate liquid broth format, poorly soluble compounds were pre-dissolved in DMSO before dilution in liquid broth and hydrophobic or solid compounds were tested in an agar well diffusion test assay. The different dilutions of the test excipients in media were prepared in Falcon tubes and then distributed in a deep well plate using a multistepper. Each well received 1.2 ml and was subsequently inoculated with 120 μl of C. acnes bacteria suspension (strain C3 and K8). From the deep well plate 200 μl were transferred in each well of a clear 96 well replicate plate. The leftover was discarded. The plates were then incubated anaerobically for 3 days at 37° C. Following incubation, the test plates were visually examined and wells were scored for growth or complete growth inhibition to define the minimum inhibitory concentration.
(§3) These excipients are listed in the below table with their compatibility values for C. acnes strains C3 and K8. The compatibility values represent the MIC value of the listed ingredients with the tested C. acnes strains. At this concentration [% w/vol] the tested compound starts interfering with the growth of the tested strains. The compounds can be used in formulations at concentrations below this concentration.

C. acnes strain C3 = assay: Minimum inhibitory concentration (MIC) of cosmetic excipients, strain C3; format: cell-based, Cutibacterium acnes; conditions: % w/vol, anaerobic 3 days at 37° C, visual growth scoring
Method: as §1, §2, §3

| Compound | COMPATABILITY VALUE K8 (MIC) (C. acnes strain K8) [%] | COMPATABILITY VALUE C3 (MIC) (C. acnes strain C3) [%] |
| --- | --- | --- |
| O=C(O)CC(O)(CC(=O)O)C(=O)O [citric acid] | 0.08 | – |
| ethylhexyl cocoate | 10.00 | 10.00 |
| peg-40 hydrogenated castor oil | 1.00 | 1.00 |
| CCCCCCC(O)CO (stereo not drawn) [caprylyl glycol] | 0.18 | 0.18 |
| tocopherol | 1.50 | 1.50 |
| CC(CO)CO [methylpropanediol] | 4.00 | 4.00 |
| CC(=O)Oc1c(C)c(C)c2c(c1C)CCC(C)(CCC[C@H](C)CCC[C@H](C)CCCC(C)C)O2 (stereo partly drawn) [tocopheryl acetate] | 1.00 | – |
